Assay results reported in EP0717746B1, “PHOSPHINIC ACID DERIVATIVES WITH ANTI-HYPER GLYCEMIC AND/OR ANTI-OBESITY ACTIVITY” (SMITHKLINE BEECHAM PLC, priority 1993, dated 1995).

Biological target: T1, human β3-adrenoceptor (Homo sapiens, UniProt P13945)
T1 construct: expressed in transfected cells; host or cells: CHO cells (stably transfected subclones); plasma membranes prepared
Assay: β3-Adrenoceptor-mediated adenylyl cyclase activity in CHO cell plasma membranes
Type: biochemical
Details: concentration of agonist producing 50 % activation of adenylyl cyclase; CHO cell plasma membranes transfected with the human β3-adrenoceptor; cAMP produced over 20 minutes
Protocol: Subclones of CHO cells were stably transfected with each of the human β1, β2 and β3-adrenoceptors^1. Cells were then disrupted by immersion in ice-cold lysis buffer (10 mM TRIS, 2mM EDTA , pH 7.4) containing protease inhibitors leupeptin and benzamidine (5 µg / ml) and soyabean trypsin inhibitor (10 µg / ml). Membranes were prepared by the method of Bouvier et. al.^2 and stored in 1 ml aliquots in liquid N2 for future use.
Adenylyl cyclase activity was assayed by the method of Kirkham et. al.^3 by the addition of 40 µl (70 -80 µg protein) to the incubation medium of the above CHO cell plasma membranes transfected with the human β3-adrenoceptor . cAMP produced over 20 minutes was separated from ATP by the method of Salomon et al.^4. Agonist EC50 values and intrinsic activities were expressed as the concentration of agonist producing 50 % activation of adenylyl cyclase and the maximum response produced by each agonist relative to that produced by (-) isoprenaline respectively.

T1 sequence (P13945 whole entry): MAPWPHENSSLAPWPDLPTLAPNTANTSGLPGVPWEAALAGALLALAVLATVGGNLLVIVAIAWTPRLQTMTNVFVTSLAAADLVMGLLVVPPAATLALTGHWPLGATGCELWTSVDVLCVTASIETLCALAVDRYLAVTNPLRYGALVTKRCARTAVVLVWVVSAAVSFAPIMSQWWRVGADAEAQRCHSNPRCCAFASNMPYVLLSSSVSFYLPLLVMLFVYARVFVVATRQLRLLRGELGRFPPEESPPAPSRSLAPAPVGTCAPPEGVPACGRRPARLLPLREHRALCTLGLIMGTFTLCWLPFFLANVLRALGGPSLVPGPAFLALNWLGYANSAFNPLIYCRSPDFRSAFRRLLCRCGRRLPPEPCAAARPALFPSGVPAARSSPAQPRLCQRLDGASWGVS

Compound	EC50 [nM]
CCOP(=O)(CC)COc1ccc(CC(C)NC[C@H](O)c2ccc(O)c(O)c2)cc1 (some centres unmarked) [Example 2, (RR RS) Ethyl 4-[2-[2-(3,4-dihydroxyphenyl)-2-hydroxyethylamino]propyl]phenoxymethylethylphosphinate]	460
CC(Cc1ccc(OCP(=O)(O)c2ccccc2)cc1)NC[C@H](O)c1ccc(O)c(O)c1 (some centres unmarked) [Example 3, (RR RS) 4-[2-[2-(3,4-Dihydroxyphenyl)-2-hydroxyethylamino]propyl]phenoxymethyl phenylphosphinic acid.]	540
